ChEMBL document CHEMBL1140493, “Quantitative structure-activity relationship studies for prediction of antimicrobial activity of synthesized 2,4-hexadienoic acid derivatives” (Bioorg Med Chem Lett, 2007)
Values after ≈ are worked out from the molar mass of the structure shown.

Columns and labels:
Candida albicans = experiment: Antifungal activity against Candida albicans after 2 days by twofold serial dilution method; type: functional; details: 48 h, read-out: -Log MIC
[1] = Partition coefficient, log P of the compound; details: octanol/water
Aspergillus niger = experiment: Antifungal activity against Aspergillus niger after 7 days by twofold serial dilution method; type: functional; details: 168 h, read-out: -Log MIC
Bacillus subtilis = experiment: Antimicrobial activity against Bacillus subtilis after 24 hrs by twofold serial dilution method; type: functional; details: read-out: -Log MIC
Escherichia coli = experiment: Antimicrobial activity against Escherichia coli after 24 hrs by twofold serial dilution method; type: functional; details: read-out: -Log MIC
Staphylococcus aureus = experiment: Antimicrobial activity against Staphylococcus aureus after 24 hrs by twofold serial dilution method; type: functional; details: read-out: -Log MIC

SMILES | MIC (Candida albicans) [µM] | logP [1] | MIC (Aspergillus niger) [µM] | MIC (Bacillus subtilis) [µM] | MIC (Escherichia coli) [µM] | MIC (Staphylococcus aureus) [µM]
C/C=C/C=C/C(=O)OCC | 77.6 (≈ 10.9 µg/mL) | 1.84 | 100 (≈ 14 µg/mL) | 89.1 (≈ 12.5 µg/mL) | – | –
C/C=C/C=C/C(=O)Nc1ccccc1Cl | 56.2 (≈ 12.5 µg/mL) | 3.05 | 63.1 (≈ 14 µg/mL) | 56.2 (≈ 12.5 µg/mL) | 81.3 (≈ 18 µg/mL) | 70.8 (≈ 15.7 µg/mL)
C/C=C/C=C/C(=O)Nc1ccccc1N | 61.7 (≈ 12.5 µg/mL) | 1.75 | 69.2 (≈ 14 µg/mL) | 49 (≈ 9.91 µg/mL) | 69.2 (≈ 14 µg/mL) | 63.1 (≈ 12.8 µg/mL)
C/C=C/C=C/C(=O)OCCCCCC | 51.3 (≈ 10.1 µg/mL) | 3.5 | 63.1 (≈ 12.4 µg/mL) | 63.1 (≈ 12.4 µg/mL) | – | 100 (≈ 19.6 µg/mL)
C/C=C/C=C/C(=O)Nc1cccc([N+](=O)[O-])c1 | 47.9 (≈ 11.1 µg/mL) | 2.49 | 39.8 (≈ 9.24 µg/mL) | 34.7 (≈ 8.06 µg/mL) | 60.3 (≈ 14 µg/mL) | 50.1 (≈ 11.6 µg/mL)
C/C=C/C=C/C(=O)NC | 79.4 (≈ 9.94 µg/mL) | 0.85 | 79.4 (≈ 9.94 µg/mL) | 79.4 (≈ 9.94 µg/mL) | – | 100 (≈ 12.5 µg/mL)
C=CCOC(=O)/C=C/C=C/C | 81.3 (≈ 12.4 µg/mL) | 2.24 | 79.4 (≈ 12.1 µg/mL) | 79.4 (≈ 12.1 µg/mL) | – | –
C/C=C/C=C/C(=O)OCC(C)C | 74.1 (≈ 12.5 µg/mL) | 2.71 | 63.1 (≈ 10.6 µg/mL) | 74.1 (≈ 12.5 µg/mL) | – | 100 (≈ 16.8 µg/mL)
C/C=C/C=C/C(=O)OCCC | 70.8 (≈ 10.9 µg/mL) | 2.31 | 81.3 (≈ 12.5 µg/mL) | 70.8 (≈ 10.9 µg/mL) | – | –
C/C=C/C=C/C(=O)OCCCCC | 50.1 (≈ 9.13 µg/mL) | 3.1 | 69.2 (≈ 12.6 µg/mL) | 63.1 (≈ 11.5 µg/mL) | 100 (≈ 18.2 µg/mL) | 79.4 (≈ 14.5 µg/mL)
O=C(O)c1cn(C2CC2)c2cc(N3CCNCC3)c(F)cc2c1=O [CIPROFLOXACIN] | – | – | – | 0.468 (≈ 0.155 µg/mL) | 0.468 (≈ 0.155 µg/mL) | 0.468 (≈ 0.155 µg/mL)
C/C=C/C=C/C(=O)NN | 100 (≈ 12.6 µg/mL) | 0.59 | – | 100 (≈ 12.6 µg/mL) | – | –
C/C=C/C=C/C(=O)OC(C)(C)C | 53.7 (≈ 9.03 µg/mL) | 2.33 | 74.1 (≈ 12.5 µg/mL) | 50.1 (≈ 8.43 µg/mL) | 83.2 (≈ 14 µg/mL) | 74.1 (≈ 12.5 µg/mL)
C/C=C/C=C/C(=O)OCCCCCCC | 58.9 (≈ 12.4 µg/mL) | 3.9 | 58.9 (≈ 12.4 µg/mL) | 50.1 (≈ 10.5 µg/mL) | 79.4 (≈ 16.7 µg/mL) | 58.9 (≈ 12.4 µg/mL)
C/C=C/C=C/C(=O)OC(C)CC (stereo not given) | 74.1 (≈ 12.5 µg/mL) | 2.72 | 83.2 (≈ 14 µg/mL) | 74.1 (≈ 12.5 µg/mL) | – | –
C/C=C/C=C/C(=O)OC(C)C | 63.1 (≈ 9.73 µg/mL) | 2.26 | 56.2 (≈ 8.67 µg/mL) | 63.1 (≈ 9.73 µg/mL) | – | 81.3 (≈ 12.5 µg/mL)
C/C=C/C=C/C(=O)Nc1ccc(C)cc1 | 55 (≈ 11.1 µg/mL) | 3 | 34.7 (≈ 6.98 µg/mL) | 55 (≈ 11.1 µg/mL) | 100 (≈ 20.1 µg/mL) | 61.7 (≈ 12.4 µg/mL)
C/C=C/C=C/C(=O)Nc1cccc(Cl)c1 | 50.1 (≈ 11.1 µg/mL) | 3.05 | 39.8 (≈ 8.82 µg/mL) | 50.1 (≈ 11.1 µg/mL) | 72.4 (≈ 16.1 µg/mL) | 63.1 (≈ 14 µg/mL)
C/C=C/C=C/C(=O)OC [METHYL SORBATE] | 79.4 (≈ 10 µg/mL) | 1.5 | 100 (≈ 12.6 µg/mL) | 79.4 (≈ 10 µg/mL) | – | 100 (≈ 12.6 µg/mL)
C/C=C/C=C/C(=O)O [SORBIC ACID] | – | 1.47 | – | – | – | –
C/C=C/C=C/C(=O)Nc1ccc(Br)cc1 | 46.8 (≈ 12.5 µg/mL) | 3.32 | 50.1 (≈ 13.3 µg/mL) | 47.9 (≈ 12.7 µg/mL) | 79.4 (≈ 21.1 µg/mL) | 37.2 (≈ 9.9 µg/mL)

SMILES | MIC (Candida albicans) [µM] | logP [1] | MIC (Aspergillus niger) [µM] | MIC (Bacillus subtilis) [µM] | MIC (Escherichia coli) [µM] | MIC (Staphylococcus aureus) [µM]
C/C=C/C=C/C(=O)Nc1ccccc1 | 66.1 (≈ 12.4 µg/mL) | 2.53 | 74.1 (≈ 13.9 µg/mL) | 66.1 (≈ 12.4 µg/mL) | – | –
C/C=C/C=C/C(=O)N1CCCCC1 | 69.2 (≈ 12.4 µg/mL) | 1.82 | 63.1 (≈ 11.3 µg/mL) | 61.7 (≈ 11.1 µg/mL) | – | 77.6 (≈ 13.9 µg/mL)
C/C=C/C=C/C(=O)N(C)C | 63.1 (≈ 8.78 µg/mL) | 1.1 | 79.4 (≈ 11.1 µg/mL) | 72.4 (≈ 10.1 µg/mL) | – | 79.4 (≈ 11.1 µg/mL)
C/C=C/C=C/C(=O)NCCC | 81.3 (≈ 12.5 µg/mL) | 1.66 | 100 (≈ 15.3 µg/mL) | 72.4 (≈ 11.1 µg/mL) | – | 100 (≈ 15.3 µg/mL)
C/C=C/C=C/C(=O)Nc1ccccc1OC | 50.1 (≈ 10.9 µg/mL) | 2.28 | 63.1 (≈ 13.7 µg/mL) | 57.5 (≈ 12.5 µg/mL) | 79.4 (≈ 17.3 µg/mL) | 63.1 (≈ 13.7 µg/mL)
C/C=C/C=C/C(=O)NCC | 79.4 (≈ 11.1 µg/mL) | 1.19 | 89.1 (≈ 12.4 µg/mL) | 89.1 (≈ 12.4 µg/mL) | – | –
C/C=C/C=C/C(=O)Nc1ccc(Cl)cc1 | 50.1 (≈ 11.1 µg/mL) | 3.05 | 50.1 (≈ 11.1 µg/mL) | 44.7 (≈ 9.91 µg/mL) | 72.4 (≈ 16.1 µg/mL) | 63.1 (≈ 14 µg/mL)
C/C=C/C=C/C(=O)OCCC(C)C | 69.2 (≈ 12.6 µg/mL) | 3.04 | 69.2 (≈ 12.6 µg/mL) | 55 (≈ 10 µg/mL) | 100 (≈ 18.2 µg/mL) | 63.1 (≈ 11.5 µg/mL)
C/C=C/C=C/C(=O)N(CCO)CCO | 50.1 (≈ 9.98 µg/mL) | 0.21 | – | 63.1 (≈ 12.6 µg/mL) | 91.2 (≈ 18.2 µg/mL) | 79.4 (≈ 15.8 µg/mL)
C/C=C/C=C/C(=O)Nc1ccc([N+](=O)[O-])cc1 | 53.7 (≈ 12.5 µg/mL) | 2.49 | 53.7 (≈ 12.5 µg/mL) | 38.9 (≈ 9.03 µg/mL) | 60.3 (≈ 14 µg/mL) | 60.3 (≈ 14 µg/mL)
C/C=C/C=C/C(=O)Nc1ccc(OC)cc1 | 50.1 (≈ 10.9 µg/mL) | 2.28 | 44.7 (≈ 9.71 µg/mL) | 45.7 (≈ 9.93 µg/mL) | 64.6 (≈ 14 µg/mL) | 64.6 (≈ 14 µg/mL)
C/C=C/C=C/C(=O)N(c1ccccc1)c1ccccc1 | 47.9 (≈ 12.6 µg/mL) | 4.46 | 39.8 (≈ 10.5 µg/mL) | 38 (≈ 10 µg/mL) | 58.9 (≈ 15.5 µg/mL) | 50.1 (≈ 13.2 µg/mL)
C/C=C/C=C/C(=O)OCc1ccccc1 | 61.7 (≈ 12.5 µg/mL) | 3.28 | 70.8 (≈ 14.3 µg/mL) | 69.2 (≈ 14 µg/mL) | 100 (≈ 20.2 µg/mL) | 63.1 (≈ 12.8 µg/mL)
C/C=C/C=C/C(=O)Oc1ccccc1 | 56.2 (≈ 10.6 µg/mL) | 3.18 | 47.9 (≈ 9.02 µg/mL) | 58.9 (≈ 11.1 µg/mL) | 74.1 (≈ 13.9 µg/mL) | 95.5 (≈ 18 µg/mL)
C/C=C/C=C/C(=O)Nc1cccc(C)c1 | 61.7 (≈ 12.4 µg/mL) | 3 | 61.7 (≈ 12.4 µg/mL) | 47.9 (≈ 9.64 µg/mL) | 79.4 (≈ 16 µg/mL) | 61.7 (≈ 12.4 µg/mL)
C/C=C/C=C/C(=O)NCc1ccccc1 | 61.7 (≈ 12.4 µg/mL) | 2.63 | 61.7 (≈ 12.4 µg/mL) | 61.7 (≈ 12.4 µg/mL) | 100 (≈ 20.1 µg/mL) | 70.8 (≈ 14.2 µg/mL)
C/C=C/C=C/C(=O)Oc1cccc2cccnc12 | 52.5 (≈ 12.6 µg/mL) | 3.27 | 38 (≈ 9.09 µg/mL) | 12.9 (≈ 3.09 µg/mL) | 12.9 (≈ 3.09 µg/mL) | 12.9 (≈ 3.09 µg/mL)
C/C=C/C=C/C(=O)OCCCC | 74.1 (≈ 12.5 µg/mL) | 2.71 | 74.1 (≈ 12.5 µg/mL) | 74.1 (≈ 12.5 µg/mL) | – | 100 (≈ 16.8 µg/mL)
C/C=C/C=C/C(=O)N1CCOCC1 | 63.1 (≈ 11.4 µg/mL) | 0.75 | 79.4 (≈ 14.4 µg/mL) | 55 (≈ 9.97 µg/mL) | – | 69.2 (≈ 12.5 µg/mL)
C/C=C/C=C/C(=O)NCCO | 81.3 (≈ 12.6 µg/mL) | 0.41 | – | 91.2 (≈ 14.2 µg/mL) | – | –
C/C=C/C=C/C(=O)Nc1cccc(O)c1 | 53.7 (≈ 10.9 µg/mL) | 2.25 | 69.2 (≈ 14.1 µg/mL) | 53.7 (≈ 10.9 µg/mL) | 100 (≈ 20.3 µg/mL) | 89.1 (≈ 18.1 µg/mL)
